The numbers were not newly measured in PubChem BioAssay AID1259409 (Chemical Carcinogenesis Research Information System (CCRIS), 2018), which cites them from elsewhere.

Each structure is given as a SMILES string.

In the series the test system is rodent chemically induced tumor inhibition, incidence and multiplicity. Nature of the series: CCRIS tumor inhibitor studies. Conditions: Route [Inhibitor]: ORAL. An excerpt:
The CCRIS database contains chemical records with carcinogenicity, mutagenicity, tumor promotion, and tumor inhibition test results. It was developed by the National Cancer Institute (NCI). Data are derived from studies cited in primary journals, current awareness tools, NCI reports, and other sources. Test results have been reviewed by experts in carcinogenesis and mutagenesis.
CCRIS provides historical information from the years 1985 - 2011. It is no longer updated.
This is an archive assay for CCRIS tumor inhibitor studies.

Take `O=C1O[C@H]([C@@H](O)CO)C(O)=C1O`: the “tumour outcome (control, treated, inhibition, significance)” value (Carcinogen: 1,2-DIMETHYLHYDRAZINE DICHLORIDE, 306-37-6, Dose [Inhibitor]: 0, 0.3% SOLUTION IN DRINKING WATER BEGINNING 1 WK POST CARCINOGEN TREATMENT AND AND CONTINUING FOR DURATION OF STUDY (ST, Species: MOUSE, Strain/Sex: CBA/FEMALE, Target Tissue: Type of Lesion: UTERUS: SARCOMA, Dose [Carcinogen]: 8 MG/KG 1/WK FOR 8 WK, Promoter: ESTRADIOL DIPROPIONATE, 133-38-2) is listed as 25/40 (63%), 14/40 (35%), 44%, p<0.001; the “tumour outcome (control, treated, inhibition, significance)” value (Carcinogen: 1,2-DIMETHYLHYDRAZINE DICHLORIDE, 306-37-6, Dose [Inhibitor]: 0, 0.3% SOLUTION IN DRINKING WATER BEGINNING 1 WK POST CARCINOGEN TREATMENT AND CONTINUING FOR DURATION OF STUDY (STUDY, Species: MOUSE, Strain/Sex: CBA/FEMALE, Target Tissue: Type of Lesion: UTERUS: SARCOMA, Dose [Carcinogen]: 8 MG/KG 1/WK FOR 8 WK, Promoter: ESTRADIOL DIPROPIONATE, 133-38-2) is on record as 25/40 (63%), 24/32 (75%), -19%, not calculated; the “tumour outcome (control, treated, inhibition, significance)” value (Carcinogen: 1,2-DIMETHYLHYDRAZINE-DIHYDROCHLORIDE, 306-37-6, Dose [Inhibitor]: 25 MG/KG/D IN DIET STARTING AT TIME OF CARCINOGEN TREATMENT AND CONTINUING FOR 35 WK (STUDY DURATION: 35 WK), Species: MOUSE, Strain/Sex: CF-1/FEMALE, Target Tissue: Type of Lesion: LARGE BOWEL: GLANDULAR TUMORS, Dose [Carcinogen]: 20 MG/KG 1/WK FOR 24 WK, Promoter: NONE USED) is reported as 18/20 (90%), 19/22 (86%), 4%, not significant; the “tumour outcome (control, treated, inhibition, significance)” value (Carcinogen: 1,2-DIMETHYLHYDRAZINE-DIHYDROCHLORIDE, 306-37-6, Dose [Inhibitor]: 50 MG/KG/D IN DIET STARTING AT TIME OF CARCINOGEN TREATMENT AND CONTINUING FOR 35 WK (STUDY DURATION: 35 WK), Species: MOUSE, Strain/Sex: CF-1/FEMALE, Target Tissue: Type of Lesion: LARGE BOWEL: GLANDULAR TUMORS, Dose [Carcinogen]: 20 MG/KG, 1/WK FOR 24 WK, Promoter: NONE USED) is reported as 18/20 (90%), 20/20 (100%), -11%, not significant; the “tumour outcome (control, treated, inhibition, significance)” value (Carcinogen: 1,2-DIMETHYLHYDRAZINE-DIHYDROCHLORIDE, 306-37-6, Dose [Inhibitor]: 100 MG/KG/DAY IN DIET STARTING AT TIME OF CARCINOGEN TREATMENT AND CONTINUING FOR 35 WK (STUDY DURATION: 35 WK), Species: MOUSE, Strain/Sex: CF-1/FEMALE, Target Tissue: Type of Lesion: LARGE BOWEL: GLANDULAR TUMORS, Dose [Carcinogen]: 20 MG/KG 1/WK FOR 24 WK, Promoter: NONE USED) is given as 18/20 (90%), 16/23 (70%), 22%, not significant; the “tumour outcome (control, treated, inhibition, significance)” value (Carcinogen: 1,2-DIMETHYLHYDRAZINE-DIHYDROCHLORIDE, 306-37-6, Dose [Inhibitor]: 200 MG/KG/DAY IN DIET STARTING AT TIME OF CARCINOGEN TREATMENT AND CONTINUING FOR 35 WK (STUDY DURATION: 35 WK), Species: MOUSE, Strain/Sex: CF-1/FEMALE, Target Tissue: Type of Lesion: LARGE BOWEL: GLANDULAR TUMORS, Dose [Carcinogen]: 20 MG/KG 1/WK FOR 24 WK, Promoter: NONE USED) is 18/20 (90%), 19/23 (83%), 8%, not significant. The “tumour outcome (control, treated, inhibition, significance)” value is on record as 23/28 (82%), 12/18 (67%), 18%, not significant (Carcinogen: 1,2-DIMETHYLHYDRAZINE, 540-73-8, Dose [Inhibitor]: 0, 0.02% IN DIET FOR 14 WK BEGINNING 3 D PRIOR TO CARCINOGEN TREATMENT (STUDY DURATION: 26 WK), Species: RAT, Strain/Sex: SPRAGUE-DAWLEY/MALE, Target Tissue: Type of Lesion: INTESTINE: CARCINOMA, Dose [Carcinogen]: 20 MG/KG BW 1/WK FOR 12 WK, Promoter: NONE USED); 1/20 (5%), 6/20 (30%), -500%, p<0.05 (Carcinogen: 1,2-DIMETHYLHYDRAZINE, 540-73-8, Dose [Inhibitor]: 0, 5% IN DIET BEGINNING 1 WK POST LAST CARCINOGEN DOSE AND CONTINUING FOR 36 WK (STUDY DURATION: 40 WK), Species: RAT, Strain/Sex: F344/MALE, Target Tissue: Type of Lesion: COLON: ADENOMA, Dose [Carcinogen]: 20 MG/KG 1/WK FOR 4 WK, Promoter: NONE USED); 6/20 (30%), 7/20 (35%), -17%, not calculated (Carcinogen: 1,2-DIMETHYLHYDRAZINE, 540-73-8, Dose [Inhibitor]: 0, 5% IN DIET BEGINNING 1 WK POST LAST CARCINOGEN DOSE AND CONTINUING FOR 36 WK (STUDY DURATION: 40 WK), Species: RAT, Strain/Sex: F344/MALE, Target Tissue: Type of Lesion: COLON: CARCINOMA, Dose [Carcinogen]: 20 MG/KG 1/WK FOR 4 WK, Promoter: NONE USED); 100%, 100%, 0%, not significant (Carcinogen: 1,2-DIMETHYLHYDRAZINE, 540-73-8, Dose [Inhibitor]: 0, 10 G/L IN DRINKING WATER FOR DURATION OF STUDY BEGINNING 7 D PRIOR TO CARCINOGEN TREATMENT (STUDY DURATION: 8 MO), Species: RAT, Strain/Sex: BD6/MALE, Target Tissue: Type of Lesion: INTESTINE: TUMOR, Dose [Carcinogen]: 20 MG/KG BW 1/WK FOR 20 WK, Promoter: NONE USED); 26%, 0%, 100%, p<0.05 (Carcinogen: 1,2-DIMETHYLHYDRAZINE, 540-73-8, Dose [Inhibitor]: 0.25% IN 20% FAT DIET DAILY STARTING 2 WK BEFORE CARCINOGEN TREATMENT AND CONTINUING FOR DURATION OF STUDY (STUDY DURATI, Species: RAT, Strain/Sex: F344/FEMALE, Target Tissue: Type of Lesion: COLON: ADENOMA, ADENOCARCINOMA, Dose [Carcinogen]: 150 MG/KG BW IN 0.9% SALINE ADJUSTED TO PH 6.8 ONCE, Promoter: NONE USED); 22%, 4%, 82%, p<0.05 (Carcinogen: 1,2-DIMETHYLHYDRAZINE, 540-73-8, Dose [Inhibitor]: 0.25% IN 20% FAT DIET DAILY STARTING 2 WK BEFORE CARCINOGEN TREATMENT AND CONTINUING FOR DURATION OF STUDY (STUDY DURATI, Species: RAT, Strain/Sex: F344/FEMALE, Target Tissue: Type of Lesion: KIDNEY: NEPHROBLASTOMA, ADENOCARCINOMA, Dose [Carcinogen]: 150 MG/KG BW IN 0.9% SALINE ADJUSTED TO PH 6.8 ONCE, Promoter: NONE USED). For the same molecule, the “tumour outcome (control, treated, inhibition, significance)” value (Carcinogen: 1,2-DIMETHYLHYDRAZINE, 540-73-8, Dose [Inhibitor]: 0.3% IN DRINKING WATER BEGINNING AFTER LAST CARCINOGEN DOSE AND CONTINUING FOR DURATION OF STUDY (STUDY DURATION: 55 WK), Species: MOUSE, Strain/Sex: CBA/FEMALE, Target Tissue: Type of Lesion: UTERUS (ENDOMETRIUM): STROMAL SARCOMA, Dose [Carcinogen]: 8 MG/KG BW IN WATER 1/WK FOR 8 WK, Promoter: ESTRADIOL PROPIONATE, 113-38-2) was 13/40 (33%), 13/30 (43%), -33%, not calculated.
